Several values for one entry are separate records, joined by “and”; a condition that tells them apart may be missing. Identical values can stand only once. Inconclusive results and toxic doses are left out. Rule as the data show it: active = T/C of 150% or more; inactive = T/C below 125%.
System: L1210 leukemia ip in BDF1 mice, survival T/C
Assay: NCI In Vivo Anticancer Drug Screen. Data for tumor model L1210 Leukemia (intraperitoneal) in B6D2F1 (BDF1) mice
Conditions: endpoint: mean survival time, higher = longer survival
Method: The antitumor activity of compounds was measured in mice bearing transplantable tumors. Survival or tumor size were measured and the results are expressed as the measurement made in the treated group (T) divided by the measurement made in the vehicle treated control group (C). The tumor model used in this assay is L1210 Leukemia (intraperitoneal) in B6D2F1 (BDF1) mice

[1] = dose: 100.0 mg/kg/injection, schedule: Q04DX003 (ip), vehicle: Klucel (hydroxypropylcellulose) (HPC)
[2] = dose: 200.0 mg/kg/injection, schedule: Q04DX003 (ip), vehicle: Klucel (hydroxypropylcellulose) (HPC)
[3] = dose: 400.0 mg/kg/injection, schedule: Q04DX003 (ip), vehicle: Klucel (hydroxypropylcellulose) (HPC)
[4] = dose: 100.0 mg/kg/injection, schedule: Q04DX002 (ip), vehicle: saline
[5] = dose: 200.0 mg/kg/injection, schedule: Q04DX002 (ip), vehicle: saline
[6] = dose: 400.0 mg/kg/injection, schedule: Q04DX002 (ip), vehicle: saline
[7] = dose: 100.0 mg/kg/injection, schedule: Q04DX003 (ip), vehicle: saline with Tween-80
[8] = dose: 200.0 mg/kg/injection, schedule: Q04DX003 (ip), vehicle: saline with Tween-80
[9] = dose: 400.0 mg/kg/injection, schedule: Q04DX003 (ip), vehicle: saline with Tween-80

Measured: T/C

CCOC(=O)NC(C)c1cccc2ccccc12 (stereo not given)
inactive: [1] 93 % of control | [2] 97 % of control | [3] 90 % of control

N#Cc1c(F)c(F)c(C#N)c(F)c1F
inactive: dose: 1.25 mg/kg/injection, schedule: Q01DX009 (ip), vehicle: Klucel (hydroxypropylcellulose) (HPC) 97 % of control | dose: 2.5 mg/kg/injection, schedule: Q01DX009 (ip), vehicle: Klucel (hydroxypropylcellulose) (HPC) 95 % of control | dose: 5.0 mg/kg/injection, schedule: Q01DX001 (ip), vehicle: saline 98 % of control | dose: 5.0 mg/kg/injection, schedule: Q01DX009 (ip), vehicle: Klucel (hydroxypropylcellulose) (HPC) 103 % of control | dose: 10.0 mg/kg/injection, schedule: Q01DX001 (ip), vehicle: saline 102 % of control | dose: 10.0 mg/kg/injection, schedule: Q01DX009 (ip), vehicle: Klucel (hydroxypropylcellulose) (HPC) 104 % of control

Nc1nc(N)c(C=O)c(Nc2ccc(Br)cc2)n1
inactive: dose: 50.0 mg/kg/injection, schedule: Q01DX001 (ip), vehicle: alcohol 110 % of control | dose: 100.0 mg/kg/injection, schedule: Q01DX001 (ip), vehicle: alcohol 96 % of control | dose: 200.0 mg/kg/injection, schedule: Q01DX001 (ip), vehicle: alcohol 94 % of control | dose: 400.0 mg/kg/injection, schedule: Q01DX001 (ip), vehicle: alcohol 90 % of control

CC(C)Cn1cnc2c(SCc3ccc(Cl)cc3Cl)nc(N)nc21
inactive: dose: 100.0 mg/kg/injection, schedule: Q01DX009 (ip), vehicle: saline 100 % of control | dose: 100.0 mg/kg/injection, schedule: Q04DX003 (ip), vehicle: acetone 92 % of control | dose: 200.0 mg/kg/injection, schedule: Q01DX009 (ip), vehicle: saline 102 % of control | dose: 200.0 mg/kg/injection, schedule: Q04DX003 (ip), vehicle: acetone 91 % of control | dose: 400.0 mg/kg/injection, schedule: Q01DX009 (ip), vehicle: saline 97 % of control | dose: 400.0 mg/kg/injection, schedule: Q04DX003 (ip), vehicle: acetone 89 % of control

CC1(C)OC2COC3(COC(C)(C)O3)C(O)C2O1 (stereo not given)
inactive: [4] 96 % of control | [5] 100 % of control | [6] 104 % of control

O=C1/C(=C/c2ccc3c(c2)OCO3)C2CCC(N2)/C1=C\c1ccc2c(c1)OCO2
inactive: dose: 100.0 mg/kg/injection, schedule: Q01DX001 (ip), vehicle: other 89 % of control | dose: 400.0 mg/kg/injection, schedule: Q01DX001 (ip), vehicle: other 101 % of control

COC(=O)[C@]1(C)CCC[C@]2(C)c3cc(C(C)=O)c(C(C)C)cc3CC[C@@H]12
inactive: [7] 102 % of control | [8] 105 % of control | [9] 98 % of control

CCCCCCCCOC(=O)C1=NC=NC1=[N+]=[N-]
inactive: dose: 5.0 mg/kg/injection, schedule: Q01DX001 (ip), vehicle: other 107 % of control | dose: 10.0 mg/kg/injection, schedule: Q01DX001 (ip), vehicle: other 110 % of control | dose: 20.0 mg/kg/injection, schedule: Q01DX001 (ip), vehicle: other 104 % of control | dose: 40.0 mg/kg/injection, schedule: Q01DX001 (ip), vehicle: other 101 % of control

CCCCOC(=O)c1ccccc1C(=O)OC1CCCCC1
inactive: dose: 75.0 mg/kg/injection, schedule: Q01DX001 (ip), vehicle: Klucel (hydroxypropylcellulose) (HPC) 115 % of control | dose: 150.0 mg/kg/injection, schedule: Q01DX001 (ip), vehicle: Klucel (hydroxypropylcellulose) (HPC) 103 % of control | dose: 300.0 mg/kg/injection, schedule: Q01DX001 (ip), vehicle: Klucel (hydroxypropylcellulose) (HPC) 100 % of control

BrC[P+](c1ccccc1)(c1ccccc1)c1ccccc1
inactive: dose: 3.12 mg/kg/injection, schedule: Q04DX002 (ip), vehicle: saline 108 % of control | dose: 6.25 mg/kg/injection, schedule: Q04DX002 (ip), vehicle: saline 104 % of control | dose: 12.5 mg/kg/injection, schedule: Q04DX002 (ip), vehicle: saline 105 % of control and 112 % of control

CCOCCOCCOC(C)Oc1cc(OC)ccc1OC (stereo not given)
inactive: [4] 107 % of control | [5] 93 % of control | [6] 101 % of control

Cc1cc(S(=O)(=O)F)ccc1NC(=O)CCc1ccc(N2C(N)=NC(N)=NC2(C)C)cc1
inactive: dose: 100.0 mg/kg/injection, schedule: Q01DX001 (ip), vehicle: Klucel (hydroxypropylcellulose) (HPC) 98 % of control | dose: 200.0 mg/kg/injection, schedule: Q01DX001 (ip), vehicle: Klucel (hydroxypropylcellulose) (HPC) 102 % of control

Cc1ccc(S(=O)(=O)N(c2ccccc2-c2ccccc2)C(C)C(=O)O)cc1 (stereo not given)
inactive: dose: 100.0 mg/kg/injection, schedule: Q01DX001 (ip), vehicle: saline 98 % of control | dose: 200.0 mg/kg/injection, schedule: Q01DX001 (ip), vehicle: saline 103 % of control | dose: 400.0 mg/kg/injection, schedule: Q01DX001 (ip), vehicle: saline 102 % of control

Cn1nc(NC(=O)C(F)(F)F)c2ncc(-c3ccc(Cl)cc3)nc21
inactive: dose: 100.0 mg/kg/injection, schedule: Q01DX009 (ip), vehicle: saline with Tween-80 102 % of control | [7] 100 % of control | dose: 200.0 mg/kg/injection, schedule: Q01DX009 (ip), vehicle: saline with Tween-80 97 % of control | [8] 87 % of control | dose: 400.0 mg/kg/injection, schedule: Q01DX009 (ip), vehicle: saline with Tween-80 97 % of control | [9] 96 % of control

c1cc[c]([Sn]([c]2ccccc2)([c]2ccccc2)[n]2nnc3ccccc32)cc1
inactive: dose: 6.25 mg/kg/injection, schedule: Q04DX002 (ip), vehicle: saline with Tween-80 96 % of control | dose: 12.5 mg/kg/injection, schedule: Q04DX002 (ip), vehicle: saline with Tween-80 101 % of control | dose: 25.0 mg/kg/injection, schedule: Q04DX002 (ip), vehicle: saline with Tween-80 101 % of control

Cc1ccc(C)c(Cc2c(C=O)[nH]c(=S)[nH]c2=O)c1
inactive: [7] 97 % of control | [8] 101 % of control | [9] 110 % of control

CC(=O)Oc1c2sccc2cc2ccsc12
inactive: dose: 100.0 mg/kg/injection, schedule: Q01DX001 (ip), vehicle: saline with Tween-80 97 % of control | dose: 200.0 mg/kg/injection, schedule: Q01DX001 (ip), vehicle: saline with Tween-80 92 % of control | dose: 400.0 mg/kg/injection, schedule: Q01DX001 (ip), vehicle: saline with Tween-80 92 % of control

COC(=O)CSC(=O)C(O)c1ccccc1 (stereo not given)
inactive: [1] 96 % of control | [2] 103 % of control | [3] 103 % of control

Nc1cccc(CC(N)C(=O)O)c1 (stereo not given)
inactive: dose: 100.0 mg/kg/injection, schedule: Q04DX003 (ip), vehicle: saline 100 % of control | dose: 200.0 mg/kg/injection, schedule: Q04DX003 (ip), vehicle: saline 93 % of control | dose: 400.0 mg/kg/injection, schedule: Q04DX003 (ip), vehicle: saline 100 % of control

O=C1CNC(=O)N1c1cccc(Cl)c1
inactive: [7] 100 % of control | [8] 100 % of control | [9] 102 % of control

Cc1cc(/C=C/C2=[N+](C)c3ccc(F)cc3C2(C)C)c(O)c2ncccc12
inactive: dose: 100.0 mg/kg/injection, schedule: Q01DX001 (ip), vehicle: carboxymethylcellulose (CMC) 98 % of control | dose: 200.0 mg/kg/injection, schedule: Q01DX001 (ip), vehicle: carboxymethylcellulose (CMC) 90 % of control | dose: 400.0 mg/kg/injection, schedule: Q01DX001 (ip), vehicle: carboxymethylcellulose (CMC) 93 % of control

CCCCCCCCCCCCSC(=S)N(CC)CC
inactive: dose: 87.5 mg/kg/injection, schedule: Q01DX009 (ip), vehicle: other 89 % of control | dose: 175.0 mg/kg/injection, schedule: Q01DX009 (ip), vehicle: other 93 % of control | dose: 350.0 mg/kg/injection, schedule: Q01DX009 (ip), vehicle: other 97 % of control

From PubChem BioAssay AID248 (DTP/NCI, 2004)
